Assay results as given in US9521847B2, “Synergistic weed control from applications of pyridine carboxylic acid herbicides and synthetic auxin herbicides and/or auxin transport inhibitors” (Dow AgroSciences LLC, priority 2014, dated 2016).
Values joined by “and” are separate entries in the source; they are usually repeats but may differ in a detail not shown here. Identical values can stand only once. Like-named read-outs stand apart in the source and are kept apart here.

Experiments:
[1] = system: pigweed (AMARE, Amaranthus retroflexus); test: Greenhouse postemergence trial, % visual injury; format: in vivo; details: for % visual injury, Obs: AMARE
[2] = system: winter rape (BRSNW, Brassica napus); test: Greenhouse postemergence trial, % visual injury; format: in vivo; details: for % visual injury, Obs: BRSNW
[3] = system: common lambsquarters (CHEAL, Chenopodium album L.); test: Greenhouse postemergence trial, % visual injury; format: in vivo; details: for % visual injury, Obs: CHEAL
[4] = system: kochia (KCHSC, Kochia scoparia); test: Greenhouse postemergence trial, % visual injury; format: in vivo; details: for % visual injury, Obs.: Table 60
Procedure: Following the protocol in Example 1, compound 1 and compound 2 were combined with 2,4 D EHE (EC) and applied to kochia (KCHSC, Kochia scoparia) and the phytotoxicity of the herbicidal compositions was measured.
Following the protocol in Example 1, compound 1 (EC) and Compound 2 (SC) were combined with diflufenzopyr and applied to kochia (Kochia scoparia, KCHSC) and the phytotoxicity of the herbicidal composition was measured.

[5] = system: velvetleaf (Abutilon theophrasti, ABUTH); test: Greenhouse postemergence trial, % visual injury; format: in vivo
[6] = system: nutsedge (Cyperus esculentus, CYPES); test: Greenhouse postemergence trial, % visual injury; format: in vivo
[7] = system: sunflower (Helianthus annus, HELAN); test: Greenhouse postemergence trial, % visual injury; format: in vivo; details: for % visual injury, Obs: HELAN
[8] = system: wild buckwheat (Polygonum convolvulus, POLCO); test: Greenhouse postemergence trial, % visual injury; format: in vivo; details: for % visual injury, Obs: POLCO
[9] = system: grain sorghum (Sorghum vulgare, SORVU); test: Greenhouse postemergence trial, % visual injury; format: in vivo
[10] = system: common chickweed (Stellaria media, STEME); test: Greenhouse postemergence trial, % visual injury; format: in vivo; details: for % visual injury, Obs: STEME
[11] = system: Russian thistle (Salsola iberica, SASKR); test: Greenhouse postemergence trial, % visual injury; format: in vivo
[12] = system: wild mustard (Sinapis arvensis, SINAR); test: Greenhouse postemergence trial, % visual injury; format: in vivo
[13] = system: spring barley (HORVS); details: in vivo; for % visual injury (Obs): Hordeum vulgare (spring barley)
[14] = system: maize (ZEAMX); details: maize (Zea mays), in vivo
[15] = system: common rice (ORYSA); details: in vivo
[16] = system: Canadian thistle (CIRAR, Cirsium arvense); test: Greenhouse postemergence trial, % visual injury; details: for % visual injury, Obs: CIRAR; for pest or weed control at 5 g/ha: Cirsium arvense, post-emergence;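 on all read-outs here: plants sprayed at second to third true leaf stage, injury scored visually 20-22 d later against solvent-blank sprayed controls, 0 meaning no injury and 100 complete kill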
[17] = system: spring rape (Brassica napus, BRSNN); test: Greenhouse postemergence trial, % visual injury; details: for plant injury at 5 g/ha: Brassica napus, post-emergence
[18] = system: poinsettia (Euphorbia heterophylla, EPHHL); test: Greenhouse postemergence trial, % visual injury
[19] = system: wild pansy (Viola tricolor, VIOTR); test: Greenhouse postemergence trial, % visual injury; details: for % visual injury, Obs: VIOTR
[20] = system: ivyleaf morningglory (Ipomoea hederacea, IPOHE); test: Greenhouse postemergence trial, % visual injury
[21] = compound 1 (EC) 5 g ae/ha, Table 62
[22] = compound 1 (EC) 5 g ae/ha, Table 63
[23] = read-out: % visual injury (Obs)

Nc1c(F)c(-c2ccc3cc[nH]c3c2F)nc(C(=O)O)c1Cl [compound 1]
% visual injury, Obs ([1]; 5 g ae/ha): 75% | % visual injury, Obs ([1]; 10 g ae/ha): 97% | % visual injury (Obs) ([1]; compound 1 (EC) 5 g ae/ha): 70% | % visual injury (Obs) ([1]; compound 1 (EC) 10 g ae/ha): 85% | % visual injury (Obs) ([1]; compound 1 SC 5 g ae/ha): 70% | % visual injury (Obs) ([1]; compound 1 SC 10 g ae/ha): 85% | % visual injury, Obs ([2]; 5 g ae/ha): 40% | % visual injury, Obs ([2]; 10 g ae/ha): 45% | % visual injury, Obs [2, 21]: 30% | % visual injury, Obs [2, 22]: 50% | % visual injury (Obs) ([2]; compound 1 (EC) 5 g ae/ha): 40% and 70% | % visual injury (Obs) ([2]; compound 1 (EC) 10 g ae/ha): 100% and 80% | % visual injury (Obs) ([2]; compound 1 SC 5 g ae/ha): 30% | % visual injury (Obs) ([2]; compound 1 SC 10 g ae/ha): 60% | % visual injury, Obs ([3]; 5 g ae/ha): 90% | % visual injury, Obs ([3]; 10 g ae/ha): 100% | % visual injury (Obs) ([3]; compound 1 (EC) 5 g ae/ha): 80% | % visual injury Obs ([4]; 8.75 g ae/ha alone, 20-22 d): 43% | pest or weed control at 5 g/ha ([4]; Bassia scoparia, post-emergence, KCHSC, 5 g ae/ha, read-out: % visual injury, Obs): 65% | pest or weed control at 10 g/ha ([4]; Bassia scoparia, post-emergence, KCHSC, 10 g ae/ha, read-out: % visual injury, Obs): 60% | % visual injury, Obs. ([4]; KCHSC, compound 1 (EC) 8.75 g ae/ha): 78% | % visual injury, Obs. ([4]; KCHSC, compound 1 (EC) 17.5 g ae/ha): 80% | % visual injury (Obs) ([4]; compound 1 (EC) 5 g ae/ha): 65% | % visual injury (Obs) ([4]; compound 1 SC 5 g ae/ha): 75% | % visual injury (Obs) ([4]; compound 1 SC 10 g ae/ha): 100% | pest or weed control at 5 g/ha ([5]; Abutilon theophrasti, post-emergence, ABUTH, 5 g ae/ha, read-out: % visual injury, Obs): 70% | pest or weed control at 10 g/ha ([5]; Abutilon theophrasti, post-emergence, ABUTH, 10 g ae/ha, read-out: % visual injury, Obs): 60% | pest or weed control at 5 g/ha ([5]; Abutilon theophrasti, post-emergence, ABUTH, compound 1 (EC) 5 g ae/ha, Table 62, read-out: % visual injury, Obs): 60% | pest or weed control at 5 g/ha ([5]; Abutilon theophrasti, post-emergence, ABUTH, compound 1 (EC) 5 g ae/ha, Table 63, read-out: % visual injury, Obs): 60% | % visual injury (Obs) ([5]; compound 1 (EC) 5 g ae/ha): 70% | % visual injury, Obs ([6]; CYPES, 5 g ae/ha): 30% | pest or weed control at 5 g/ha ([6]; Cyperus, post-emergence, 5 g ae/ha alone, 20-22 d, read-out: % visual injury Obs): 25% | % visual injury (Obs) ([6]; compound 1 (EC) 5 g ae/ha): 30% | % visual injury, Obs ([7]; 5 g ae/ha): 80% | % visual injury, Obs [7, 21]: 70% | % visual injury, Obs [7, 22]: 70% | % visual injury (Obs) ([7]; compound 1 (EC) 5 g ae/ha): 80% | % visual injury, Obs ([8]; 10 g ae/ha): 30% | % visual injury, Obs [8, 21]: 65% | % visual injury, Obs [8, 22]: 65% | % visual injury (Obs) ([8]; compound 1 SC 10 g ae/ha): 30% and 40% | % visual injury Obs ([9]; 5 g ae/ha alone, 20-22 d): 13% | % visual injury, Obs ([9]; SORVU, 10 g ae/ha): 50% | % visual injury (Obs) ([9]; compound 1 (EC) 5 g ae/ha): 30% | % visual injury, Obs ([10]; 5 g ae/ha): 60% and 70% | % visual injury, Obs ([10]; 10 g ae/ha): 70% | % visual injury (Obs) ([10]; compound 1 (EC) 5 g ae/ha): 60% | % visual injury (Obs) ([11]; compound 1 (EC) 10 g ae/ha): 65% and 60% | % visual injury (Obs) ([11]; compound 1 SC 5 g ae/ha): 65% | % visual injury (Obs) ([11]; compound 1 SC 10 g ae/ha): 80% | % visual injury (Obs) ([12]; compound 1 (EC) 5 g ae/ha): 100% and 95% | % visual injury (Obs) ([12]; compound 1 (EC) 10 g ae/ha): 100% | % visual injury (Obs) ([12]; compound 1 SC 5 g ae/ha): 100% | % visual injury (Obs) ([12]; compound 1 SC 10 g ae/ha): 80% | % visual injury (Obs) [13]: 0% | % visual injury (Obs) ([13]; sc): 0% | % visual injury, Obs ([13]; spring barley (Hordeum vulgare)): 0% | % visual injury (Obs) [14]: 5% | % visual injury (Obs) [15]: 0% | % visual injury, Obs ([16]; 5 g ae/ha): 10% | % visual injury, Obs [16, 22]: 10% | pest or weed control at 5 g/ha [16, 23]: 10% | pest or weed control at 5 g/ha ([16]; read-out: % visual injury Obs): 20% | % visual injury (Obs) ([16]; compound 1 (EC) 5 g ae/ha): 10% | % visual injury, Obs ([17]; BRSNN, compound 1 (EC) 5 g ae/ha, Table 62): 50% | plant injury at 5 g/ha [17, 23]: 50% | plant injury at 5 g/ha ([17]; read-out: % visual injury Obs): 60% | plant injury at 5 g/ha ([17]; read-out: % visual injury, Obs): 50% | pest or weed control at 5 g/ha ([18]; Euphorbia heterophylla, post-emergence, read-out: % visual injury, Obs, EPHHL, 5 g ae/ha): 95% | pest or weed control at 10 g/ha ([18]; Euphorbia heterophylla, post-emergence, read-out: % visual injury, Obs, EPHHL, 10 g ae/ha): 97% | % visual injury (Obs) ([18]; compound 1 (EC) 5 g ae/ha): 95% | % visual injury, Obs ([19]; 10 g ae/ha): 10% | % visual injury, Obs [19, 21]: 5% | % visual injury, Obs [19, 22]: 5% | pest or weed control at 5 g/ha ([19]; Viola tricolor, post-emergence, read-out: % visual injury Obs): 25% | % visual injury (Obs) ([19]; compound 1 (EC) 5 g ae/ha): 10% | % visual injury (Obs) ([19]; compound 1 SC 2.5 g ae/ha): 13% | % visual injury (Obs) ([19]; compound 1 SC 5 g ae/ha): 23% | pest or weed control at 5 g/ha ([20]; Ipomoea, post-emergence, read-out: % visual injury, Obs, IPOHE, 5 g ae/ha): 20% | pest or weed control at 10 g/ha ([20]; Ipomoea, post-emergence, read-out: % visual injury, Obs, IPOHE, 10 g ae/ha): 10% | % visual injury (Obs) ([20]; compound 1 (EC) 5 g ae/ha): 20%
